2 compounds from article PMC11167047 (Cell Death Discovery, 2024) can be followed below.

Common to all, as to experiment: kinome screen (33PanQinase)
What all share (format): biochemical

One experiment deals with T1, ALK (Homo sapiens, UniProt Q9UM73).
T1 construct: purchased Reaction Biology Europe GmbH (formerly ProQinase)
On the procedure:
(§1) The Kinome Screening was performed by Reaction Biology Europe GmbH (http://reactionbiology.com; Freiburg i. Br., Germany).

The next experiment has as its target T2, CDK5/p35NCK (Homo sapiens, UniProt Q00535).
T2 construct: purchased Reaction Biology Europe GmbH (formerly ProQinase)
On the procedure:
as §1

The next experiment has as its target T3, EPHB2 (Homo sapiens, UniProt P29323).
T3 construct: purchased Reaction Biology Europe GmbH (formerly ProQinase)
T3 sequence (P29323 19-1055): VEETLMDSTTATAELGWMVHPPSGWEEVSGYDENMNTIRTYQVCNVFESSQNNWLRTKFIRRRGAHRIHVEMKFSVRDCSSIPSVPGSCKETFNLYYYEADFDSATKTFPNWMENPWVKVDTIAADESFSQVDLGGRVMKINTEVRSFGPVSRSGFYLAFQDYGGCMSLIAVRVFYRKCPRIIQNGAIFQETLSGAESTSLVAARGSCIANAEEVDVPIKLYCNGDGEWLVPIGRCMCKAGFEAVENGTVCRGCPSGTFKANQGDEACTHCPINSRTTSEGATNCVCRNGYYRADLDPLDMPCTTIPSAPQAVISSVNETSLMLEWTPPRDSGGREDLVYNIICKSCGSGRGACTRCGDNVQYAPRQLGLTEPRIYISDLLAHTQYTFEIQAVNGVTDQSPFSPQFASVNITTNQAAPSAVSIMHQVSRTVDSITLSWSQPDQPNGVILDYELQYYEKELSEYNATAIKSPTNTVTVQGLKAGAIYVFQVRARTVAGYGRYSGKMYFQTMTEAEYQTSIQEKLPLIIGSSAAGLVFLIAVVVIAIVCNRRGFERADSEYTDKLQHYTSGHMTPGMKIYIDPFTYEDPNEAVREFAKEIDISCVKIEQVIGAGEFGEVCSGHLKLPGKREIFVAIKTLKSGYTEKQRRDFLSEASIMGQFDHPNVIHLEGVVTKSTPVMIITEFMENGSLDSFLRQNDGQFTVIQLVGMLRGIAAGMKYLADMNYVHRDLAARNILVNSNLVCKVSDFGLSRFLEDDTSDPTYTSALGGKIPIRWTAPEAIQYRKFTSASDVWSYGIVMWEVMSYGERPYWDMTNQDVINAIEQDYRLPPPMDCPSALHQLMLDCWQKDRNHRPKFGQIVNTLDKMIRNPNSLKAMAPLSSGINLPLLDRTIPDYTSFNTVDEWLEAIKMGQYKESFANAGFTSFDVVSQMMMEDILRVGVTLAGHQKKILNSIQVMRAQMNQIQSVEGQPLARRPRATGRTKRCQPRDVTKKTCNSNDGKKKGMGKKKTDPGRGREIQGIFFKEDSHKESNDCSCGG
On the procedure: as §1

The next experiment has as its target T4, MAP4K2 (Homo sapiens, UniProt Q12851).
T4 construct: purchased Reaction Biology Europe GmbH (formerly ProQinase)
T4 sequence (Q12851 1-820): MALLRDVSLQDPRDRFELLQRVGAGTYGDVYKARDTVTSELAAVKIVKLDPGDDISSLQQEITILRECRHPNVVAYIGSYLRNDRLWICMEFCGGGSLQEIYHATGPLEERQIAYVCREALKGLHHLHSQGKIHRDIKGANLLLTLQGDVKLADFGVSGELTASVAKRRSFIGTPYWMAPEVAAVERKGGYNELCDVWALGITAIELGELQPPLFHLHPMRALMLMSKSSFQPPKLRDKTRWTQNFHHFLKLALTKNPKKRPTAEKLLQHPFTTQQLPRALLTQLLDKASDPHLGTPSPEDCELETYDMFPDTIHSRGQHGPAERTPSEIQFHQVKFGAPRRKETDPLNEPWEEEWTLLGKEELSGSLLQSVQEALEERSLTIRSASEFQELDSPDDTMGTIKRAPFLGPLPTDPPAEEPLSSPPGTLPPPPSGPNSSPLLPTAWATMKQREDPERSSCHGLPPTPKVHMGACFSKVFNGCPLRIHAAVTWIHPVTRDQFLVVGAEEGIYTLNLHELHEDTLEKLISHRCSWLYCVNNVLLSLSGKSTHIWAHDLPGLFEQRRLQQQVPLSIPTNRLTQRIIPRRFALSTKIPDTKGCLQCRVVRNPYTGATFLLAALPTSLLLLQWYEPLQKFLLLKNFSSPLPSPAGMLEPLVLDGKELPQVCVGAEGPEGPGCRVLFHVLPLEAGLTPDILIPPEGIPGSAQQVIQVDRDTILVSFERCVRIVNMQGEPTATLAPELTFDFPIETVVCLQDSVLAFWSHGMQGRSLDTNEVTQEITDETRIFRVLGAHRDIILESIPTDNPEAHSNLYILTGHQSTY
On the procedure:
as §1

The target of another experiment is T5, MYLK2 (Homo sapiens, UniProt Q9H1R3).
T5 construct: purchased Reaction Biology Europe GmbH (formerly ProQinase)
On the procedure:
as §1

In another experiment the target is T6, SRC (Homo sapiens, UniProt P12931).
T6 construct: purchased Reaction Biology Europe GmbH (formerly ProQinase)
On the procedure:
as §1

A further experiment has as its target T7, p38γ (Homo sapiens, UniProt P53778).
T7 construct: purchased Reaction Biology Europe GmbH (formerly ProQinase)
T7 sequence (P53778 1-367): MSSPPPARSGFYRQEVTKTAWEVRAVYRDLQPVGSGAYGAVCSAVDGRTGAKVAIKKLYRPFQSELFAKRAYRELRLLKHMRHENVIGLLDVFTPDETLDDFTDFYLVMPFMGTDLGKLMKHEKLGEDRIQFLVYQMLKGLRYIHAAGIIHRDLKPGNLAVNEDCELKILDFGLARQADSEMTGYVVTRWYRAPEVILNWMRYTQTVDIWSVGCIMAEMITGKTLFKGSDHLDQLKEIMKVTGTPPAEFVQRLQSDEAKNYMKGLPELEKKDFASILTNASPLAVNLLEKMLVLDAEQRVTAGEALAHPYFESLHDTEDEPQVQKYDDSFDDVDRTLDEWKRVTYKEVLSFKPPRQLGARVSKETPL
On the procedure:
as §1

T2 sequence (Q00535 whole entry): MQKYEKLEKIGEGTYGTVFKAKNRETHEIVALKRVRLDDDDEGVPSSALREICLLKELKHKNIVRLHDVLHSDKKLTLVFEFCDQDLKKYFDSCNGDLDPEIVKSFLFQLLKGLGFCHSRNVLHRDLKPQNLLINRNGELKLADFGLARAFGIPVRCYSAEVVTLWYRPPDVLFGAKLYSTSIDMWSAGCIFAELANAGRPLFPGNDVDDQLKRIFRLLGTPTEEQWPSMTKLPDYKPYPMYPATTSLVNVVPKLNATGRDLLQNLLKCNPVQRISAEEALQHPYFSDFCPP
T2 sequence (Q15078 whole entry partner): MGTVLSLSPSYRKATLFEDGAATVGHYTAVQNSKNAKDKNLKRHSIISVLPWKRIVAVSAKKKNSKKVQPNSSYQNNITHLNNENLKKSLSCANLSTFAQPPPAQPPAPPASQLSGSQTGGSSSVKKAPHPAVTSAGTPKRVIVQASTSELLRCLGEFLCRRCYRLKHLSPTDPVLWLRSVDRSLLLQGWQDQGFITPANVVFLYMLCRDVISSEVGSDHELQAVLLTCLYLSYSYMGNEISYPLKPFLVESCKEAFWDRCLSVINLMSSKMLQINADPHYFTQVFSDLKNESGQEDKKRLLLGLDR
T1 sequence (Q9UM73 19-1620): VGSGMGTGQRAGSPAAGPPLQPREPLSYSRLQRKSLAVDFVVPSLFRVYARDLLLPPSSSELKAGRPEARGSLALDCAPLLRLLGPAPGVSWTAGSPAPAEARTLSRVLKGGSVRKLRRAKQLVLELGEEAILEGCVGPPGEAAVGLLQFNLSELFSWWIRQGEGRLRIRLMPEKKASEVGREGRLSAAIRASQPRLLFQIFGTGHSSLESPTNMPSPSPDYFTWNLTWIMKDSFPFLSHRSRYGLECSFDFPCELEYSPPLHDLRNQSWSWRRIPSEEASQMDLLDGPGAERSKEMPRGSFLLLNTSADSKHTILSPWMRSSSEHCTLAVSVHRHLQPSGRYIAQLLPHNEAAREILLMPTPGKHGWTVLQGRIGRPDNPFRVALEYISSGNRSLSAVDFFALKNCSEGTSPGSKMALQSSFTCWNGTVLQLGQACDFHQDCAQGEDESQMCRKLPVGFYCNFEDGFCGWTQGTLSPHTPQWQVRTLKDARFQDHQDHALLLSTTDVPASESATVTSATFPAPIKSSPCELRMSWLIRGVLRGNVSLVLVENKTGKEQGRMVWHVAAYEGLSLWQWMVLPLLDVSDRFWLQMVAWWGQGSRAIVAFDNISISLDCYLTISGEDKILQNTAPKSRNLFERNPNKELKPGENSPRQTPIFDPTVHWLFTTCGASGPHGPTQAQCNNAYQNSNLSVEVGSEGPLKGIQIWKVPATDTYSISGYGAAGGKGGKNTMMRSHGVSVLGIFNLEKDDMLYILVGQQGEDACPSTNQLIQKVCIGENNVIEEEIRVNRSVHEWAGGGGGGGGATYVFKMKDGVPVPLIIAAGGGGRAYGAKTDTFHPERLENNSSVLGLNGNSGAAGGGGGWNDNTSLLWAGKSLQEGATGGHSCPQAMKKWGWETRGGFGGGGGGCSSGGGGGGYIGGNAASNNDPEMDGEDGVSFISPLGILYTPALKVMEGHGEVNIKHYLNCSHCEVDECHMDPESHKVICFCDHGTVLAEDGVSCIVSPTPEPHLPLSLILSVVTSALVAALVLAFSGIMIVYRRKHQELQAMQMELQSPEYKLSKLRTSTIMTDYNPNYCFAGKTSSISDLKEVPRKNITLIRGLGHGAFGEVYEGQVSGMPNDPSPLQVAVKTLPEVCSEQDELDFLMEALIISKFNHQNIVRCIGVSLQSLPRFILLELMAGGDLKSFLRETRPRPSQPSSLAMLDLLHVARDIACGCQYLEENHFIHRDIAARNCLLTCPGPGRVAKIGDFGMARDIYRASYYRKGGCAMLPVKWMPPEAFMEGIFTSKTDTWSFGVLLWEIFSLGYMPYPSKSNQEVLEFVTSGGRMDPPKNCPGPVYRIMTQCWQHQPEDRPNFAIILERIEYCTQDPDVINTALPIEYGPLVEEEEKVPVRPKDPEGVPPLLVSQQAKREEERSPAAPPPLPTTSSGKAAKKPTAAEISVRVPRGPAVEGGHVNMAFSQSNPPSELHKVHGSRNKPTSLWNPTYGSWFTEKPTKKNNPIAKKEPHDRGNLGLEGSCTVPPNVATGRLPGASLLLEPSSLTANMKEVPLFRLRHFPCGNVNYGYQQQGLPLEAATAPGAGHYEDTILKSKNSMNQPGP
T5 sequence (Q9H1R3 whole entry): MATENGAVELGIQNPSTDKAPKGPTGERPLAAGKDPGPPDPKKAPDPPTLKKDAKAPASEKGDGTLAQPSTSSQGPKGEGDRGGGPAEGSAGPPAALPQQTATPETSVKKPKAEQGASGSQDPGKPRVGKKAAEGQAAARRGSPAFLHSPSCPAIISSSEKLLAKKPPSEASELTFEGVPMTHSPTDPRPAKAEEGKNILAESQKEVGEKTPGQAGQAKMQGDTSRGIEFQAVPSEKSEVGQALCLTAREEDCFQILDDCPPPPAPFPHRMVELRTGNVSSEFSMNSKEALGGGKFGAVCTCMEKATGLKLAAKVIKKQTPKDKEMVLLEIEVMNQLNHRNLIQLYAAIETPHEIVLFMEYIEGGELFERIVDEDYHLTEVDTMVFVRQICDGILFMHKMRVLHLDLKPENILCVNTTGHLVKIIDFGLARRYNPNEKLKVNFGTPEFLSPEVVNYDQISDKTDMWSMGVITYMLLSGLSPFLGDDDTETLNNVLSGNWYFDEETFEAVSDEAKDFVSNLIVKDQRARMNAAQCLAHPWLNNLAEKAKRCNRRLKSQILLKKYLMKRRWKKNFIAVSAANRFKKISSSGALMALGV
T6 sequence (P12931 whole entry): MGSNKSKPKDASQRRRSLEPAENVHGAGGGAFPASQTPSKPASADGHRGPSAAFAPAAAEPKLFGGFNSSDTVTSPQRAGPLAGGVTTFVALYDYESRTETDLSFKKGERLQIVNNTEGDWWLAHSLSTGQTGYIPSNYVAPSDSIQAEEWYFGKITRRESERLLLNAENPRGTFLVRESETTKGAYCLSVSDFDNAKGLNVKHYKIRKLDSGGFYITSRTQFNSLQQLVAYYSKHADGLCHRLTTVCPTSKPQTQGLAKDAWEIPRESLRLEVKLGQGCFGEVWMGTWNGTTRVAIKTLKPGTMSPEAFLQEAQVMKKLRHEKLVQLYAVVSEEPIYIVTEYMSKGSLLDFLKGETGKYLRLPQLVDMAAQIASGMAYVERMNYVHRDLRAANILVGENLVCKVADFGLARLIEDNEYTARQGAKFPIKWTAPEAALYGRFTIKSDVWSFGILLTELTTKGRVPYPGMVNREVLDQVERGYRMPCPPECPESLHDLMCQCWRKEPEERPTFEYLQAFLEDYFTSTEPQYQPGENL

Consider `COc1ccnc2[nH]cc(-c3cc(N)nc(N)c3)c12` [meriolin 16], for which the residual kinase activity at ALK (0.03 µM) is reported as 104 % of control; at ALK (0.3 µM), 77 % of control; on CDK5/p35NCK (0.03 µM), 7 % of control; at CDK5/p35NCK (0.3 µM) it was 1 % of control; on EPHB2 (0.03 µM) it was 97 % of control; at EPHB2 (0.3 µM) it was 95 % of control. Further, the residual kinase activity is reported as 22 % of control on MAP4K2 (0.03 µM); 4 % of control at MAP4K2 (0.3 µM); 65 % of control on MYLK2 (0.03 µM); 32 % of control on MYLK2 (0.3 µM); 95 % of control at SRC (0.03 µM); 86 % of control at SRC (0.3 µM). Besides, the residual kinase activity at p38γ (0.03 µM) is listed as 56 % of control; on p38γ (0.3 µM) it was 8 % of control.
Take `c1ccc(CNc2cc(-c3c[nH]c4ncccc34)ccn2)cc1` [meriolin 36]: the residual kinase activity at ALK (0.3 µM) is reported as 60 % of control; on ALK (3 µM), 14 % of control; on CDK5/p35NCK (0.3 µM), 0 % of control; at CDK5/p35NCK (3 µM), 0 % of control; at EPHB2 (0.3 µM), 85 % of control; at EPHB2 (3 µM) it was 47 % of control. Moreover, the residual kinase activity was 3 % of control at MAP4K2 (0.3 µM); 0 % of control on MAP4K2 (3 µM); 61 % of control on MYLK2 (0.3 µM); 26 % of control at MYLK2 (3 µM); 88 % of control on SRC (0.3 µM); 24 % of control at SRC (3 µM). Moreover, the residual kinase activity on p38γ (0.3 µM) is 64 % of control; on p38γ (3 µM), 19 % of control.
